Read-outs that look alike come from different tables or passages of the source.
Assays:
[1] = system: MCF7 cells expressing mutant estrogen receptor Asp 538 Gly; experiment: Test B: cell proliferation/viability assay (CellTiter-Glo) on MCF7 Asp 538 Gly mutant; type: cell-based; conditions: Homo sapiens, MCF7 cells expressing ER Asp 538 Gly mutant, 7 days of compound exposure, read-out: proliferation MCF7 D538G IC50
Summary of the method: (§1)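 Seven-day compound exposure, 9 concentrations from 3 to 0.000001 μM, in phenol red-free medium with 5% charcoal-stripped serum. ER Tyr537Ser and Asp538Gly lines derive from transfected MCF7 selected to grow without estradiol. Viability from CellTiter-Glo luminescence, background-corrected, as percent of untreated.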

[2] = system: MCF7 cells expressing mutant estrogen receptor Tyr 537 Ser; experiment: Test B: cell proliferation/viability assay (CellTiter-Glo) on MCF7 Tyr 537 Ser mutant; type: cell-based; conditions: Homo sapiens, MCF7 cells expressing ER Tyr 537 Ser mutant, 7 days of compound exposure, read-out: proliferation MCF7 Y537S IC50
Summary of the method: as §1

[3] = target: His6-ERα298-554 WT (ERα ligand-binding domain) (Homo sapiens (Human), UniProt P03372); experiment: Test A: biochemical antagonist activity, LanthaScreen TR-FRET ERα coactivator assay, WT; conditions: asterisk (*): protocol using 10 nM estradiol; read-out: Antagonism WT IC50
Chain of His6-ERα298-554 WT (ERα ligand-binding domain) (P03372 298-554): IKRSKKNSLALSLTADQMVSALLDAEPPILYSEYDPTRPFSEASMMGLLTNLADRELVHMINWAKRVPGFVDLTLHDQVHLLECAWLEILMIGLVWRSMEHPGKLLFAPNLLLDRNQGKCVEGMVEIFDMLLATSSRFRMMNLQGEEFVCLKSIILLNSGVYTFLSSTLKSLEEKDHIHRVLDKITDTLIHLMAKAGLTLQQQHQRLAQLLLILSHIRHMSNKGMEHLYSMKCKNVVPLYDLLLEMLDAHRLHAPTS
Summary of the method: (§2)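 IC50 values come from a 4-parameter logistic fit of the 520:495 nm TR-FRET ratio after overnight room-temperature incubation. The mix held 0.5 nM ERα 298–554 LBD, Tb-labelled anti-His6 antibody, 250 nM PGC1a peptide and 3 nM or 10 nM estradiol, pH 7.4 phosphate buffer with DTT.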

[4] = system: MCF7 cells (breast tumor cells) WT; experiment: Test B: cell proliferation/viability assay (CellTiter-Glo) on MCF7 WT; type: cell-based; conditions: Homo sapiens, 7 days of compound exposure
Summary of the method: as §1

[5] = target: His6-ERα298-554 D538G mutant (ERα ligand-binding domain) (Homo sapiens (Human), UniProt P03372, D538G); experiment: Test A: biochemical antagonist activity, LanthaScreen TR-FRET ERα coactivator assay, D538G mutant; conditions: asterisk (*): protocol using 10 nM estradiol; read-out: Antagonism D538G IC50
Chain of His6-ERα298-554 D538G mutant (ERα ligand-binding domain) (P03372 298-554 D538G): as the sequence (P03372 298-554) above, with D241G counted along it
Summary of the method: as §2

ERα in MCF7 cells = ERα in MCF7 cells (Homo sapiens (Human), UniProt P03372); experiment: Test C: estrogen receptor degradation activity, ERα in cell western assay in MCF7 cells; type: cell-based; conditions: for DC50: 4 hours post compound addition, ERα in cell western, read-out: Degradation IC50; for % Degradation at 3 μM: 4 hours, relative to fulvestrant
Chain of ERα in MCF7 cells (P03372 whole entry): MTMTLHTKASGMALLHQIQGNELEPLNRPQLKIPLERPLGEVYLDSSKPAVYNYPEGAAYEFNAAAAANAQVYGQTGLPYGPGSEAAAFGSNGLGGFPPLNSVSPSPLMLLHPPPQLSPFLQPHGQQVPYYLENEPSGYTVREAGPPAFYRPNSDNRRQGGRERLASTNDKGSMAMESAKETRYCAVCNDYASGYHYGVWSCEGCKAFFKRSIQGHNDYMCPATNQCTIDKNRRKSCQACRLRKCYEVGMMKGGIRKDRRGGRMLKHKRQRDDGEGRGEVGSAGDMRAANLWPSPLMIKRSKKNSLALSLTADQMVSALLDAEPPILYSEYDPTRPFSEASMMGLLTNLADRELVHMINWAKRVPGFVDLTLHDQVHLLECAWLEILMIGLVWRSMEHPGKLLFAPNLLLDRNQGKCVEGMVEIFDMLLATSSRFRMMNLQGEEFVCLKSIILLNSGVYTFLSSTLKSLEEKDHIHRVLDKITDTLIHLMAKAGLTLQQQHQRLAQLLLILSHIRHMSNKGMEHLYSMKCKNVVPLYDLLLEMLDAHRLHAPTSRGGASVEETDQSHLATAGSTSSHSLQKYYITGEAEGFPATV
Summary of the method: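 In-cell western: ERα level (green) against DNA stain Syto-64 (red) by integrated intensity. MCF7 cells in hormone-depleted medium exposed 4 h to compound at 3-0.000018 μM final (1:5 series); fulvestrant 0.1 μM as positive control.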

[6] = target: His6-ERα298-554 Y537S mutant (ERα ligand-binding domain) (Homo sapiens (Human), UniProt P03372, Y537S); experiment: Test A: biochemical antagonist activity, LanthaScreen TR-FRET ERα coactivator assay, Y537S mutant; conditions: asterisk (*): protocol using 10 nM estradiol; read-out: Antagonism Y537S IC50
Chain of His6-ERα298-554 Y537S mutant (ERα ligand-binding domain) (P03372 298-554 Y537S): as the sequence (P03372 298-554) above, with Y240S counted along it
Summary of the method: as §2

Row | Compound | IC50 ([1]; MCF7, 168 h) | IC50 ([2]; MCF7, 168 h) | IC50 [3] | IC50 ([4]; MCF7, 168 h) | IC50 [5] | DC50 (ERα in MCF7 cells) | % Degradation at 3 μM (ERα in MCF7 cells) | IC50 [6] | IC50 ([1]; 168 h) | IC50 ([2]; 168 h) | IC50 ([4]; 168 h)
1 | Oc1ccc2c(c1)SCC(c1ccc(OC3COC3)cc1)=C2c1ccc(O[C@H]2CCN(CCCF)C2)cc1 [Example 44, 4-[4-[(3S)-1-(3-fluoropropyl)pyrrolidin-3-yl]oxyphenyl]-3-[4-(oxetan-3-yloxy)phenyl]-2H-thiochromen-7-ol] | > 999 nM | > 999 nM | 172 nM | > 999 nM | 2930 nM | 8 nM | 89% | 1820 nM | – | – | –
2 | COc1ccc(C2=C(c3ccc(O[C@H]4CCN(CCCF)C4)cc3)c3ccc(O)cc3SC2)c(F)n1 [Example 45, 3-(2-fluoro-6-methoxy-3-pyridyl)-4-[4-[(3S)-1-(3-fluoropropyl)pyrrolidin-3-yl]oxyphenyl]-2H-thiochromen-7-ol] | 0.6 nM | 2 nM | 1 nM | 0.1 nM | 34 nM | 0.2 nM | 87% | 14 nM | – | – | –
3 | Oc1ccc2c(c1)SCC(c1ccc(O)nc1F)=C2c1ccc(O[C@H]2CCN(CCCF)C2)cc1 [Example 46, 6-fluoro-5-[4-[4-[(3S)-1-(3-fluoropropyl)pyrrolidin-3-yl]oxyphenyl]-7-hydroxy-2H-thiochromen-3-yl]pyridin-2-ol] | 0.5 nM | 2 nM | 5 nM | 0.1 nM | 101 nM | 0.2 nM | 83% | 59 nM | – | – | –
4 | Cc1ccc(C2=C(c3ccc(O[C@H]4CCN(CCCF)C4)cc3)c3ccc(OP(=O)(O)O)cc3SC2)c(F)c1 [Example 48, [3-(2-fluoro-4-methyl-phenyl)-4-[4-[(3S)-1-(3-fluoropropyl)pyrrolidin-3-yl]oxyphenyl]-2H-thiochromen-7-yl]dihydrogen phosphate] | – | – | > 4000 nM | – | > 4000 nM | 0.8 nM | 89% | > 4000 nM | 6 nM | 17 nM | 1 nM
5 | Oc1ccc2c(c1)SCC(c1ccc(F)nc1F)=C2c1ccc(O[C@H]2CCN(CCCF)C2)cc1 [Example 49, 3-(2,6-difluoro-3-pyridyl)-4-[4-[(3S)-1-(3-fluoropropyl)pyrrolidin-3-yl]oxyphenyl]-2H-thiochromen-7-ol] | 0.9 nM | 3 nM | 37 nM | 0.3 nM | 888 nM | 0.2 nM | 89% | 472 nM | – | – | –
6 | Oc1ccc2c(c1)SCC(c1ccc(Cl)nc1Cl)=C2c1ccc(O[C@H]2CCN(CCCF)C2)cc1 [Example 50, 3-(2,6-dichloro-3-pyridyl)-4-[4-[(3S)-1-(3-fluoropropyl)pyrrolidin-3-yl]oxyphenyl]-2H-thiochromen-7-ol] | 2 nM | 7 nM | 72 nM | 0.6 nM | 1550 nM | 0.2 nM | 84% | 1170 nM | – | – | –
7 | O=C1Cc2cc(C3=C(c4ccc(O[C@H]5CCN(CCCF)C5)cc4)c4ccc(O)cc4SC3)ccc2N1 [Example 51, 5-[4-[4-[(3S)-1-(3-fluoropropyl)pyrrolidin-3-yl]oxyphenyl]-7-hydroxy-2H-thiochromen-3-yl]indolin-2-one] | 148 nM | 230 nM | 350 nM | 91 nM | > 4000 nM | 12 nM | 85% | 3600 nM | – | – | –
8 | CC(C)(C)c1ccc(C2=C(c3ccc(O[C@H]4CCN(CCCF)C4)cc3)c3ccc(O)cc3SC2)cc1 [Example 52, 3-(4-tert-butylphenyl)-4-[4-[(3S)-1-(3-fluoropropyl)pyrrolidin-3-yl]oxyphenyl]-2H-thiochromen-7-ol] | 3 nM | 41 nM | 351 nM | 2 nM | > 4000 nM | 1 nM | 84% | 2910 nM | – | – | –
9 | CCOc1nccc(C2=C(c3ccc(O[C@H]4CCN(CCCF)C4)cc3)c3ccc(O)cc3SC2)c1Cl [Example 53, 3-(3-chloro-2-ethoxy-4-pyridyl)-4-[4-[(3S)-1-(3-fluoropropyl)pyrrolidin-3-yl]oxyphenyl]-2H-thiochromen-7-ol] | 0.2 nM | 5 nM | 2 nM | 0.2 nM | 36 nM | 0.2 nM | 84% | 25 nM | – | – | –
10 | Oc1ccc2c(c1)SCC(c1ccc(OC(F)(F)F)cc1)=C2c1ccc(O[C@H]2CCN(CCCF)C2)cc1 [Example 54, 4-[4-[(3S)-1-(3-fluoropropyl)pyrrolidin-3-yl]oxyphenyl]-3-[4-(trifluoromethoxy)phenyl]-2H-thiochromen-7-ol] | 3 nM | 21 nM | 246 nM | 3 nM | 3030 nM | 1 nM | 74% | 2640 nM | – | – | –
11 | Oc1ccc2c(c1)SCC(c1ccc(Cl)nc1F)=C2c1ccc(O[C@H]2CCN(CCCF)C2)cc1 [Example 55, 3-(6-chloro-2-fluoro-3-pyridyl)-4-[4-[(3S)-1-(3-fluoropropyl)pyrrolidin-3-yl]oxyphenyl]-2H-thiochromen-7-ol] | 0.3 nM | 5 nM | 48 nM | 0.7 nM | 971 nM | 0.2 nM | 88% | 444 nM | – | – | –
12 | Cc1ccc(C2=C(c3ccc(O[C@H]4CCN(CCCF)C4)cc3)c3ccc(O)cc3SC2)c(Cl)n1 [Example 56, 3-(2-chloro-6-methyl-3-pyridyl)-4-[4-[(3S)-1-(3-fluoropropyl)pyrrolidin-3-yl]oxyphenyl]-2H-thiochromen-7-ol] | 0.7 nM | 14 nM | 37 nM | 0.6 nM | 721 nM | 0.2 nM | 86% | 358 nM | – | – | –
13 | Cc1ccc(C2=C(c3ccc(O[C@H]4CCN(CCCF)C4)cc3)c3ccc(O)cc3[S+]([O-])C2)c(F)c1 (stereo partly drawn) [Example 57, 3-(2-fluoro-4-methyl-phenyl)-4-[4-[(3S)-1-(3-fluoropropyl)pyrrolidin-3-yl]oxyphenyl]-1-oxo-2H-thiochromen-7-ol] | > 999 nM | > 999 nM | 1070 nM | 33 nM | > 4000 nM | 3 nM | 89% | > 4000 nM | – | – | –
14 | CC(C)(C)OC(=O)N1CCOc2ccc(C3=C(c4ccc(O[C@H]5CCN(CCCF)C5)cc4)c4ccc(O)cc4SC3)cc21 [Example 59, tert-butyl 6-[4-[4-[(3S)-1-(3-fluoropropyl)pyrrolidin-3-yl]oxyphenyl]-7-hydroxy-2H-thiochromen-3-yl]-2,3-dihydro-1,4-benzoxazine-4-carboxylate] | > 999 nM | > 999 nM | 879 nM | 27 nM | > 4000 nM | 0.9 nM | 81% | > 4000 nM | – | – | –
15 | Oc1ccc2c(c1)SCC(c1ccc(OCF)cc1)=C2c1ccc(O[C@H]2CCN(CCCF)C2)cc1 [Example 60, 3-[4-(fluoromethoxy)phenyl]-4-[4-[(3S)-1-(3-fluoropropyl)pyrrolidin-3-yl]oxyphenyl]-2H-thiochromen-7-ol] | 0.4 nM | 3 nM | 9 nM | 0.5 nM | 215 nM | 0.2 nM | 73% | 103 nM | – | – | –
16 | Oc1ccc2c(c1)SCC(c1ccc(CF)cc1)=C2c1ccc(O[C@H]2CCN(CCCF)C2)cc1 [Example 61, 3-[4-(fluoromethyl)phenyl]-4-[4-[(3S)-1-(3-fluoropropyl)pyrrolidin-3-yl]oxyphenyl]-2H-thiochromen-7-ol] | 0.6 nM | 17 nM | 37 nM | 2 nM | 686 nM | 0.2 nM | 82% | 437 nM | – | – | –

From patent publication US11149031B2, “Substituted N-(3-fluoropropyl)-pyrrolidine compounds, processes for their preparation and therapeutic uses thereof” (SANOFI, priority 2016, dated 2021)
